Measurements: patent US9192166B2, “Compositions comprising a streptomyces-based biological control agent and an insecticide” (BAYER […], priority 2013, dated 2015)

Tests used:
Type in all cases: in vivo
[1] = system: mustard beetle larvae (Phaedon cochleariae); test: Phaedon cochleariae spray test
Text: The fermentation product is referred to in the examples below as NRRL B-50550.
Solvent: 78.0 parts by weight of acetone

[2] = system: fall armyworm larvae (Spodoptera frugiperda); test: Spodoptera frugiperda spray test
Text: (§1) Emulsifier: alkylaryl polyglycol ether

[3] = system: two spotted spidermite (Tetranychus urticae); test: Tetranychus urticae spray test, OP-resistant
Text: as §1

[4] = system: green peach aphid (Myzus persicae); test: Myzus persicae spray test (Chinese cabbage leaf disks)
Text: as §1
100% means all aphids have been killed; 0% means none of the aphids have been killed.

[5] = system: green peach aphid (Myzus persicae); test: Myzus persicae spray test (pepper leaves); settings: 0.5 ppm

Compound: Cc1c(F)c(F)c(COC(=O)[C@@H]2[C@H](/C=C(\Cl)C(F)(F)F)C2(C)C)c(F)c1F (racemic) [Tefluthrin]
- Efficacy in % after 2d ([1]; 40 ppm): 0%

Compound: CNC(=O)c1cc(C#N)cc(C)c1NC(=O)c1cc(Cn2nnc(C(F)(F)F)n2)nn1-c1ncccc1Cl [1-(3-chloropyridin-2-yl)-N-[4-cyano-2-methyl-6-(methylcarbamoyl)phenyl]-3-{[5-(trifluoromethyl)-2H-tetrazol-2-yl]methyl}-1H-pyrazole-5-carboxamide]
- Efficacy in % after 6d ([2]; 0.64 ppm): 33%
- Efficacy in % after 6d ([1]; 0.128 ppm): 0%
- Efficacy in % after 2d ([1]; 0.64 ppm): 50%

Compound: Cc1cc(F)c(-n2nc(C(F)(F)F)nc2N)cc1[S+]([O-])CC(F)(F)F (stereo not shown) [1-{2-fluoro-4-methyl-5-[(2,2,2-trifluorethyl)sulfinyl]phenyl}-3-(trifluoromethyl)-1H-1,2,4-triazol-5-amine]
- Efficacy in % after 6d ([3]; 3.2 ppm): 0%

Compound: CNC(=O)c1cc(Cl)cc(C)c1NC(=O)c1cc(Br)nn1-c1ncccc1Cl [Chlorantraniliprole]
- Efficacy in % after 6d ([3]; 16 ppm): 0%
- Efficacy in % after 1d ([4]; 3.2 ppm): 0%

Compound: CN/C(=N\[N+](=O)[O-])NCc1cnc(Cl)s1 [Clothianidin]
- Efficacy in % after 6d ([4]; 0.32 ppm): 0%

Compound: CNC(=O)c1cc(C#N)cc(C)c1NC(=O)c1cc(Br)nn1-c1ncccc1Cl [Cyantraniliprole]
- Efficacy in % after 6d ([3]; 80 ppm): 0%
- Efficacy in % after 6d ([1]; 0.64 ppm): 0%
- Efficacy in % after 6d ([4]; 0.64 ppm): 0%
- Efficacy in % after 6d ([4]; 3.2 ppm): 0%
- Efficacy in % after 1d ([4]; 16 ppm): 0%

Compound: N#Cc1nn(-c2c(Cl)cc(C(F)(F)F)cc2Cl)c(N)c1[S+]([O-])C(F)(F)F (stereo not shown) [Fipronil]
- Efficacy in % after 6d ([2]; 16 ppm): 0%

Compound: Cc1cc(C(F)(C(F)(F)F)C(F)(F)F)ccc1NC(=O)c1cccc(I)c1C(=O)NC(C)(C)CS(C)(=O)=O [Flubendiamide]
- Efficacy in % after 2d ([2]; 3.2 ppm): 33%

Compound: O=[N+]([O-])NC1=NCCN1Cc1ccc(Cl)nc1 [Imidacloprid]
- Efficacy in % after 6d ([3]; 2 ppm): 0%

Compound: CNC(=O)Oc1cc(C)c(SC)c(C)c1 [Methiocarb]
- Efficacy in % after 6d ([4]; 2000 ppm): 0%

Compound: CC(c1ccc(C(F)(F)F)nc1)S(C)(=O)=NC#N (stereo not shown) [Sulfoxaflor]
- Efficacy in % after 1d ([4]; 0.64 ppm): 0%

Compound: N#C/N=C1\SCCN1Cc1ccc(Cl)nc1 [Thiacloprid]
- Efficacy in % after 2d [5]: 40%
- Efficacy in % after 3d [5]: 20%
- Efficacy in % after 7d [5]: 10%

Compound: CS/C(C)=N\OC(=O)N(C)SN(C)C(=O)O/N=C(\C)SC [Thiodicarb]
- Efficacy in % after 2d ([2]; 40 ppm): 0%

Compound: CC1(C)C(C=C(Cl)Cl)C1C(=O)OC(C#N)c1ccc(F)c(Oc2ccccc2)c1 (stereo not drawn) [β-Cyfluthrin, beta-Cyfluthrin]
- Efficacy in % after 6d ([2]; 1.6 ppm): 0%
- Efficacy in % after 6d ([1]; 1.6 ppm): 0%
- Efficacy in % after 6d ([4]; 1.6 ppm): 0%

Compound: Spinetoram
- Efficacy in % after 2d ([2]; 0.64 ppm): 0%

Compound: Spinosad
- Efficacy in % after 6d ([2]; 0.64 ppm): 0%
- Efficacy in % after 2d ([1]; 80 ppm): 50%
